The text below walks through data of article PMC7920280, “The Multi-Targeting Ligand ST-2223 with Histamine H3 Receptor and Dopamine D2/D3 Receptor Antagonist Properties Mitigates Autism-Like Repetitive Behaviors and Brain Oxidative Stress in Mice” (International Journal of Molecular Sciences, 2021).

Where only a bound is given, the exact number is not on record here.

In assay [1] the target is T1, hD1Rs (Homo sapiens, UniProt P21728).
T1 construct: expressed in transfected cells
As to the kind of experiment: [3H]SCH23390 displacement assay, HEK cell membranes. In kind it is binding. Here is the method:
(§1) In accordance with previous experimental protocols, the binding affinity of ST-2223 for H3Rs was assessed by applying the [^3H]N^α-methylhistamine binding assay, performed with cell membrane preparation of HEK cells stably expressing the human H3R (n = 4). In addition, and as previously described, the binding affinity of ST-2223 for human dopamine hD1Rs and hD5Rs (HEK) against [^3H]SCH23390 and hD2SRs, hD3Rs (CHO) using [^3H]spiperone (n = 3) was assessed (n = 3).

Assay [2] has as its target T2, hD5Rs (Homo sapiens, UniProt P21918).
T2 construct: expressed in transfected cells
The assay is described as above. In kind it is binding. Here is the method:
as §1

Assay [3] has as its system catalase (CAT). As to the kind of experiment: Catalase (CAT) activity in brain parts of treated BTBR mice. The class given is in vivo. The settings on record: i.p., ST-2223 5 mg/kg, RAM 10 mg/kg, ARP 1 mg/kg, MEM 5 mg/kg, mean ± SEM; for CAT, Prefrontal Cortex: n = 3-6, BTBR vehicle 80.1 ± 14.9; for CAT, Striatum: n = 3-6, BTBR vehicle 104.6 ± 2.28; for CAT, Hippocampus: n = 3-6, BTBR vehicle 111.4 ± 4.8; for CAT, Cerebellum: n = 3-6, BTBR vehicle 130. 7 ± 3.3. Here is the method: At the end of the behavioral assessments, the animals were sacrificed following previously published protocols. Animals were anesthetized with pentobarbital (40 mg/kg, body weight, i.p.), sacrificed, and perfused via intracardial infusion to wash out the blood, using 1× PBS (0.01 M phosphate buffer, 0.0027 M potassium chloride and 0.137 M sodium chloride) at pH 7.4. […] The brains were then quickly removed and placed on an ice plate. The cerebellum, hippocampus, prefrontal and striatum were excised from the brain and snap-frozen in liquid nitrogen for further use in biochemical assessments. On the day of the biochemical tests, the tissues were homogenized using radioimmunoprecipitation assay (RIPA) buffer (50 mM Tris HCl, pH 7.4, 140 mM NaCl, 1 mM EDTA, 0.5% Triton X-100 and 0.5% sodium deoxycholate) supplemented with protease and phosphatase inhibitors. Then, the homogenates were centrifuged at 14,000 rpm for 30 min (4 °C), and the supernatant was used for evaluation of lipid peroxidation, glutathione, and antioxidant enzymes using spectrophotometric measurements and enzyme-linked immunosorbent assays (ELISA)..
To assess the activity of antioxidant enzymes Superoxide dismutase (SOD) and Catalase (CAT), commercially available kits were used, following the manufacturer’s instructions, and as previously reported. Cayman assay kits (Cayman Chemicals Company, Ann Arbor, MI, USA) were used to assess antioxidant enzyme (superoxide dismutase (SOD) and catalase (CAT)) activities in experimental animals. Catalase assay: Twenty microliters of samples or standards and 30 μL of methanol was added to the assay buffer (100 μL) in 96-well plates. To this mixture, twenty microliter of hydrogen peroxide was added and incubated for 20 min at room temperature (RT) to initiate the reaction. Following incubation, 30 μL of potassium hydroxide was used to terminate the reaction, followed by subsequent addition of catalase purpald (30 μL) and catalase potassium periodate (10 μL). The plate was incubated for 5 min at room temperature in a shaker and the plate was read at 540 nm using a microplate reader. Catalase activity was expressed as nmol/min/mg protein. Superoxide dismutase assay: ten microliters of sample or standard was added in 96-well plates. Twenty microliters of xanthine oxidase were added to initiate the reaction. The reaction mixture was mixed for few seconds and incubated (covered) for 30 min at room temperature (RT). Absorbance was read at 450 nm using microplate reader. The activity of SOD was expressed as units/mg protein.

In assay [4] the target is T3, human H3R (Homo sapiens, UniProt Q9Y5N1).
T3 construct: expressed in transfected cells
As to the kind of experiment: [3H]Nα-methylhistamine binding assay, membranes of HEK cells. The note with it: HEK cells stably expressing human H3R, n = 4; read-out: Ki (hH3R). Here is the method:
as §1

The target of assay [5] is T4, hH1R (Homo sapiens, UniProt P35367).
T4 construct: expressed in transfected cells
Briefly: [3H]pyrilamine binding assay, membranes of CHO cells.

For assay [6], the system named is BTBR and B6 mice. Briefly: Marble burying task (MBT). The class given is in vivo. The settings on record: MEM 5 mg/kg; for percentage of marbles buried vs vehicle-treated B6 mice: i.p., ST-2223 2.5, 5, 10 mg/kg; for percentage of marbles buried vs vehicle-treated BTBR mice: i.p. 30-45 min before, ST-2223 2.5, 5 and 10 mg/kg, ARP 1 mg/kg. Here is the method: The drugs tested included ST-2223 [N-(4-(4-(2-methoxyphenyl)piperazin-1-yl)butyl)-6-(3-(piperidin-1-yl)propoxy)-2-naphthamide] that was designed and synthesized in the Institute of Pharmaceutical and Medicinal Chemistry, Heinrich Heine University Düsseldorf, Germany, and in accordance with previously described methodologies (Supplementary Materials). Aripiprazole (ARP) (1 mg/kg, i.p.) and memantine (MEM, 5 mg/kg, i.p.), as reference drugs, were purchased from Sigma-Aldrich (St. Louis, MO, USA). The CNS-penetrant H3R agonist (R)-α-methylhistamine (RAM, 10 mg/kg, i.p.) was purchased from Sigma-Aldrich, St. Louis, MO, USA. T. Protease and the phosphatase inhibitor cocktail were procured from Thermo Scientific, USA. The assay kit for reduced glutathione (GSH) was obtained from Sigma-Aldrich (St. Louis, MO, USA). The lipid peroxidation assay kit for estimation of malondialdehyde (MDA) was purchased from North West Life Science (Vancouver, WA, USA). The assay kits for superoxide dismutase (SOD) and catalase (CAT) were purchased from Cayman Chemical (Ann Arbor, MI, USA). The drugs were prepared daily using 1% dimethyl sulfoxide (DMSO) in 0.9% saline, for intraperitoneal (i.p.) administration at a volume of 10 mL/kg of body weight. Vehicle treatment consisted of 1% DMSO in 0.9% normal saline. All drugs were i.p. administered 30 min before the behavioral test. The doses of these drugs were chosen based on previous reports. Neurobehavioral assessment was performed blindly with respect to experimental group and drug administration.
The MBT is used for testing repetitive and compulsive behaviors as it accurately reflects repetitive digging behavior [95, 96]. The test was performed as described previously, with slight modifications. Briefly, cages (26 cm × 48 cm × 20 cm) were filled with fresh, unscented mouse bedding material to a depth of 5 cm, on top of which 20 marbles were placed in 4 rows of 5 marbles each (15 mm diameter). Before placing the marbles, the bedding surface was leveled by placing another cage of the same size onto the surface of the bedding and then each mouse was individually added for 10 min habituation. After habituation, the mouse was removed, and the marbles were carefully overlaid. The same mouse was then returned to its designated test cage and allowed to explore for 30 min. The total number of marbles buried (>50% marble covered by the bedding material) was determined at the end of the session.

In assay [7] the target is EeAChE (Electrophorus electricus, UniProt O42275). As to the kind of experiment: Acetylcholinesterase inhibition, modified Ellman's method. In kind it is biochemical, electric eel. The settings on record: 1 μM (1000 nM) of compound; preliminary data. A general note: Ellman's reagent forms a yellow product with free thiols.
The target in assay [8] is T5, hD3Rs (Homo sapiens, UniProt P35462).
T5 construct: expressed in transfected cells
As to the kind of experiment: [3H]spiperone displacement assay, CHO cell membranes. In kind it is binding. Here is the method:
as §1

Assay [9] concerns the target T6, hD2SRs (Homo sapiens, UniProt P14416).
T6 construct: expressed in transfected cells
Described as above. In kind it is binding. Here is the method:
as §1

Assay [10] has as its system VPA mouse model of ASD. More on the design: method as in PMID 26074764. The settings on record: cited from earlier work.

T5 sequence (P35462 whole entry): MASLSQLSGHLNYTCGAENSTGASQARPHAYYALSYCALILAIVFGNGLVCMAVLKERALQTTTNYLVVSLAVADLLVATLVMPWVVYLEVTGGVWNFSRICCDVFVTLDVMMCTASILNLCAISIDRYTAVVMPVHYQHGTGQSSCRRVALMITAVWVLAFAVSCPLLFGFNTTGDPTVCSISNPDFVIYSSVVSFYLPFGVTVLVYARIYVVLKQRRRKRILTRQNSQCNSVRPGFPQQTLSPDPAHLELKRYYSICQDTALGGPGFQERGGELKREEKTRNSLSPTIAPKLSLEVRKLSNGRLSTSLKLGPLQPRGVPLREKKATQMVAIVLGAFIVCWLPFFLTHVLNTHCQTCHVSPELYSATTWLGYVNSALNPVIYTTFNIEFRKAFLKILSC
T3 sequence (Q9Y5N1 whole entry): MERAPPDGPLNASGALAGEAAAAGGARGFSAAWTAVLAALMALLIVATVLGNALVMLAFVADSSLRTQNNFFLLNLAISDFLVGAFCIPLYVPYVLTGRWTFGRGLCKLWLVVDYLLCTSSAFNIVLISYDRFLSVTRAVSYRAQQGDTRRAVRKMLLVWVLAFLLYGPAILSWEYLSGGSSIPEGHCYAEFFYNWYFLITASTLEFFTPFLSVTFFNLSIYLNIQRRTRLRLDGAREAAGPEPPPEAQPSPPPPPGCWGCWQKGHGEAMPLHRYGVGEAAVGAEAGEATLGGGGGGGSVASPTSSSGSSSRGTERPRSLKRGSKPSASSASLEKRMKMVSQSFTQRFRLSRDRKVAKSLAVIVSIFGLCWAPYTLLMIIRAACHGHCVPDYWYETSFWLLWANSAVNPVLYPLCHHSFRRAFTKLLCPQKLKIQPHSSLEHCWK
T2 sequence (P21918 whole entry): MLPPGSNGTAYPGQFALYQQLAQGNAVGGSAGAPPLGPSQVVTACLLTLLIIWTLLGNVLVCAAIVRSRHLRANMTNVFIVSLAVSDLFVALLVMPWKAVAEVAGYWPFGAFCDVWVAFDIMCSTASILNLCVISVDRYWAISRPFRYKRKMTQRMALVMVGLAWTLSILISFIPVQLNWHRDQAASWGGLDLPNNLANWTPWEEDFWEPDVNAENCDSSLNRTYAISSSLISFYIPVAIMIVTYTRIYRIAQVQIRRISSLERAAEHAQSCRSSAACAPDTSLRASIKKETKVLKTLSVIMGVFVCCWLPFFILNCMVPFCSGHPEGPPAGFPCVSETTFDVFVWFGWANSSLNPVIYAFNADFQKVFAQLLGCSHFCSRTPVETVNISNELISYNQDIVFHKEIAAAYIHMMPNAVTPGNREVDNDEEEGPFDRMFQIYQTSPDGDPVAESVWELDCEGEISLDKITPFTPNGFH
T4 sequence (P35367 whole entry): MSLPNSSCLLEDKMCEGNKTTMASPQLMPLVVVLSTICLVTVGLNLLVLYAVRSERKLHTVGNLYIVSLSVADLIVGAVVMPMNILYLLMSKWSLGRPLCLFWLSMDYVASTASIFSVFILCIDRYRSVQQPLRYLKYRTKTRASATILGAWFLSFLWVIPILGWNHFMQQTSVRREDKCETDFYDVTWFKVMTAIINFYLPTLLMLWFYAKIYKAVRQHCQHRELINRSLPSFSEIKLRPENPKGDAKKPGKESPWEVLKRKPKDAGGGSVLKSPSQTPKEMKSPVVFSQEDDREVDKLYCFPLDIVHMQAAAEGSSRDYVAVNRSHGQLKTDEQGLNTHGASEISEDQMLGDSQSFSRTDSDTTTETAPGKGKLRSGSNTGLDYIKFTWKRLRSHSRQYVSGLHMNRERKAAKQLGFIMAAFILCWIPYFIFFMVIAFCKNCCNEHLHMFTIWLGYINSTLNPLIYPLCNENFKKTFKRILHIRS
T6 sequence (P14416 1-414 isoform P14416-2): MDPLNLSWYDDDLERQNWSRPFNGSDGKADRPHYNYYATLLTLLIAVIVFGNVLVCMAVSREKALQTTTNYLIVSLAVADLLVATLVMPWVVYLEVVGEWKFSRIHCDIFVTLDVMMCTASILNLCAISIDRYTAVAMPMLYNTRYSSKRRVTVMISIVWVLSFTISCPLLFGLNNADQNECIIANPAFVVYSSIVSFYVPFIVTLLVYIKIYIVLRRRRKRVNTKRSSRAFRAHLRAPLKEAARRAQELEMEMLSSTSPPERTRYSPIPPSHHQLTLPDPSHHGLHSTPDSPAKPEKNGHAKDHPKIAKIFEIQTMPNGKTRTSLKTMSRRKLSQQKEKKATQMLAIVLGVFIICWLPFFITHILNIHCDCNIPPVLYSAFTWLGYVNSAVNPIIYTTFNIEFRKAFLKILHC
T1 sequence (P21728 whole entry): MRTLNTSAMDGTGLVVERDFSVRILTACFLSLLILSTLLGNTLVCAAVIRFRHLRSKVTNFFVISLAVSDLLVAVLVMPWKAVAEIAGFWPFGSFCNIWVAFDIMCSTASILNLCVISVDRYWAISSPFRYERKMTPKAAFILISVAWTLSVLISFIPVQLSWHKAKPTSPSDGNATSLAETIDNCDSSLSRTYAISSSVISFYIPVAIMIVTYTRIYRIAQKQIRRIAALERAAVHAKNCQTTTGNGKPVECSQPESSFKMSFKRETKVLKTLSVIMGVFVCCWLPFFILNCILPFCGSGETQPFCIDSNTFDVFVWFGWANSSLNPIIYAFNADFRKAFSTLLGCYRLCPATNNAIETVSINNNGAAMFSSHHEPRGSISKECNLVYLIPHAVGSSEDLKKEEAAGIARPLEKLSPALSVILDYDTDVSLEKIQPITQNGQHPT
Sequence of EeAChE (O42275 24-633): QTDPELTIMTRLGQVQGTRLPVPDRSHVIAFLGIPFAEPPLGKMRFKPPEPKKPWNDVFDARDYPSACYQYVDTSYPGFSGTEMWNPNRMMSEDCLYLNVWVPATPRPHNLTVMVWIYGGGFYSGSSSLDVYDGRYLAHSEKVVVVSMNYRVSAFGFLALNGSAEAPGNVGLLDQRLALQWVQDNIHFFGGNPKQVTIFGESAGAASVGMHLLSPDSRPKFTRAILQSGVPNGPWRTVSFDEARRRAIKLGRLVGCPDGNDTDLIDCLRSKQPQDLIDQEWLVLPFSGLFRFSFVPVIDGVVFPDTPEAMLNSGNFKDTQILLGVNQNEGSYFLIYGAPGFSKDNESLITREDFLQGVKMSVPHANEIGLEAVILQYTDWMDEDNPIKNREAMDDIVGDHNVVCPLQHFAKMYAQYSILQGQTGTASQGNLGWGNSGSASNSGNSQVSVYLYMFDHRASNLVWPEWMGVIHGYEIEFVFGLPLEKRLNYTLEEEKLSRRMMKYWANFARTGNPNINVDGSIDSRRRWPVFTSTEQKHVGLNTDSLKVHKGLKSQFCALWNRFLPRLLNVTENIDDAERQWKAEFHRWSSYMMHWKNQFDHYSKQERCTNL

Usually Ki stands for the equilibrium dissociation constant of an inhibitor or competing ligand from its target. One may read the inhibition as the share of the control response that was lost under treatment. High values mean a strong effect, low ones a weak effect. Consider `COc1ccccc1N1CCN(CCCCNC(=O)c2ccc3cc(OCCCN4CCCCC4)ccc3c2)CC1` [ST-2223, N-(4-(4-(2-methoxyphenyl)piperazin-1-yl)butyl)-6-(3-(piperidin-1-yl)propoxy)-2-naphthamide], for which the Ki in assay [1] was 564 nM; in assay [2], 5060 nM; in assay [4], 4.8 nM; in assay [5], 85.2 nM; in assay [8] it was 2 nM; in [9], 19.8 nM. In addition, the “CAT, Prefrontal Cortex” value in [3] turned out to be 116.8 ± 5.3 nmol/min/mg protein. Also, the “CAT, Striatum” value in [3] came out at 119.1 ± 3.7 nmol/min/mg protein. Also, the “CAT, Hippocampus” value in assay [3] is 173.0 ± 1.9 nmol/min/mg protein. For the same compound, the “CAT, Cerebellum” value in assay [3] was 120.6 ± 8.8 nmol/min/mg protein. For the same compound, the “percentage of marbles buried vs vehicle-treated B6 mice” value in assay [6] is “did not alter”. For the same compound, the “percentage of marbles buried vs vehicle-treated BTBR mice” value in [6] is reported as “significantly decreased”. Moreover, the inhibition at 1 µM in assay [7] is less than 60%. Moreover, the “hD2R/hD3R ratio of Ki values” in [8] (preference for hD3R) is listed as 10.

On to `CC12CC3CC(C)(C1)CC(N)(C3)C2` [MEM, memantine], for which, in [3], the “CAT, Prefrontal Cortex” value is 94.1 ± 4.8 nmol/min/mg protein; the “CAT, Striatum” value is listed as 108.1 ± 3.4 nmol/min/mg protein; the “CAT, Hippocampus” value stood at 114.3 ± 11.2 nmol/min/mg protein; the “CAT, Cerebellum” value was found to be 132.3 ± 4.5 nmol/min/mg protein. Also, in assay [6], the “percentage of marbles buried vs vehicle-treated B6 mice” value is “not significant” and the “percentage of marbles buried vs vehicle-treated BTBR mice” value is given as “significantly reduced”. For the same compound, the “social deficits and repetitive behaviors (self-grooming, jumping)” value in assay [10] is given as “rescued”.

Take `O=C1CCc2ccc(OCCCCN3CCN(c4cccc(Cl)c4Cl)CC3)cc2N1` [ARP, aripiprazole]: in assay [3], the “CAT, Prefrontal Cortex” value was found to be 96.2 ± 1.3 nmol/min/mg protein; the “CAT, Striatum” value stood at 120.5 ± 10.1 nmol/min/mg protein; the “CAT, Hippocampus” value was 118.3 ± 6.5 nmol/min/mg protein; the “CAT, Cerebellum” value is 159.2 ± 5.1 nmol/min/mg protein. Besides, in [6], the “percentage of marbles buried vs vehicle-treated BTBR mice” value is listed as “significantly reduced”.
